Data: patent publication US20240109917A1 (ACTELION PHARMACEUTICALS LTD, priority 2020, published 2024)

Tests used:
[1] = target: His6-TEV-PDGFRβ (557-1016) (Homo sapiens (Human), UniProt P09619); assay: PDGFRβ HTRF Assay; format: biochemical; details: read-out: PDGFR HTRF IC50
How it was run: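 Human PDGFRβ (557-1016) pre-incubated with compound for 30 min at RT in pH 7.5 HEPES/MgCl2/EGTA/Brij-35/DTT buffer. Reaction started with ATP and TK-biotin peptide, run 3 h at RT, then quenched with EDTA-containing Eu-cryptate antibody/streptavidin-XL665. HTRF 665/620 nm ratio read after 60 min; percent inhibition relative to DMSO and 10 μM imatinib controls.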

[2] = target: Tb-labeled inactive PDGFRβ (Homo sapiens (Human), UniProt P09619); assay: PDGFRβ LanthaScreen Assay; format: binding; details: read-out: PDGFR Lantha IC50
Sequence of Tb-labeled inactive PDGFRβ (P09619 33-1106): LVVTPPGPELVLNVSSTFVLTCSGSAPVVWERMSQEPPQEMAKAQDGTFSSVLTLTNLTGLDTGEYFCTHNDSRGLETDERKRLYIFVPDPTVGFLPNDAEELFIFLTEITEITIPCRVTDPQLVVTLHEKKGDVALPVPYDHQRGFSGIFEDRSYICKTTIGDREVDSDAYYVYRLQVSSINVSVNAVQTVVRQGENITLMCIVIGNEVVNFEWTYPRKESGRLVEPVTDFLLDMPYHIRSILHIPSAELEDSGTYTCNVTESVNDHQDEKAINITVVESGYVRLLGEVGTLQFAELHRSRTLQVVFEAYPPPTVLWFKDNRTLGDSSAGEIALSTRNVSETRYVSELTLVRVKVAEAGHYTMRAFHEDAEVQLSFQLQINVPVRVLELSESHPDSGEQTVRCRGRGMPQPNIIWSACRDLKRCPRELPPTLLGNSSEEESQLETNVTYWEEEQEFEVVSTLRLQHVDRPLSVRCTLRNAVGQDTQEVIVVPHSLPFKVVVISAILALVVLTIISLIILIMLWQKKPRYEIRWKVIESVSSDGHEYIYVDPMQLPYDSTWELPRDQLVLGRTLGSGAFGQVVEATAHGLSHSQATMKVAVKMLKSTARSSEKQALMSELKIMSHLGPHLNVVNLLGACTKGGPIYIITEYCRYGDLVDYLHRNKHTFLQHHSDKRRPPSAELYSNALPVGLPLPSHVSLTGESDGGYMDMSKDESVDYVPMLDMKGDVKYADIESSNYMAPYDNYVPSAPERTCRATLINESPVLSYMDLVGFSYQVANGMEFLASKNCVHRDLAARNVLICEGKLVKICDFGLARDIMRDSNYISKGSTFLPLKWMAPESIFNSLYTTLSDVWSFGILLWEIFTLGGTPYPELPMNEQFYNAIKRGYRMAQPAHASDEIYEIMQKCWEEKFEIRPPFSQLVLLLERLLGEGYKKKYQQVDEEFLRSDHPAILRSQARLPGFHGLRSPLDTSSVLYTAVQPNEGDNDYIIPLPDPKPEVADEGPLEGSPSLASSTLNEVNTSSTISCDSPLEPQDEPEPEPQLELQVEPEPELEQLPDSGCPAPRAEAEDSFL

PDGFRβ = PDGFRβ (Rattus norvegicus (Rat), UniProt Q05030); assay: PDGFRβ Cellular Assay (PDGFRb P-Y751 HTRF in A10 cells stimulated with PDGF-BB); format: cell-based; details: read-out: PDGFR Cellular IC50
Sequence of PDGFRβ (Q05030 32-1097): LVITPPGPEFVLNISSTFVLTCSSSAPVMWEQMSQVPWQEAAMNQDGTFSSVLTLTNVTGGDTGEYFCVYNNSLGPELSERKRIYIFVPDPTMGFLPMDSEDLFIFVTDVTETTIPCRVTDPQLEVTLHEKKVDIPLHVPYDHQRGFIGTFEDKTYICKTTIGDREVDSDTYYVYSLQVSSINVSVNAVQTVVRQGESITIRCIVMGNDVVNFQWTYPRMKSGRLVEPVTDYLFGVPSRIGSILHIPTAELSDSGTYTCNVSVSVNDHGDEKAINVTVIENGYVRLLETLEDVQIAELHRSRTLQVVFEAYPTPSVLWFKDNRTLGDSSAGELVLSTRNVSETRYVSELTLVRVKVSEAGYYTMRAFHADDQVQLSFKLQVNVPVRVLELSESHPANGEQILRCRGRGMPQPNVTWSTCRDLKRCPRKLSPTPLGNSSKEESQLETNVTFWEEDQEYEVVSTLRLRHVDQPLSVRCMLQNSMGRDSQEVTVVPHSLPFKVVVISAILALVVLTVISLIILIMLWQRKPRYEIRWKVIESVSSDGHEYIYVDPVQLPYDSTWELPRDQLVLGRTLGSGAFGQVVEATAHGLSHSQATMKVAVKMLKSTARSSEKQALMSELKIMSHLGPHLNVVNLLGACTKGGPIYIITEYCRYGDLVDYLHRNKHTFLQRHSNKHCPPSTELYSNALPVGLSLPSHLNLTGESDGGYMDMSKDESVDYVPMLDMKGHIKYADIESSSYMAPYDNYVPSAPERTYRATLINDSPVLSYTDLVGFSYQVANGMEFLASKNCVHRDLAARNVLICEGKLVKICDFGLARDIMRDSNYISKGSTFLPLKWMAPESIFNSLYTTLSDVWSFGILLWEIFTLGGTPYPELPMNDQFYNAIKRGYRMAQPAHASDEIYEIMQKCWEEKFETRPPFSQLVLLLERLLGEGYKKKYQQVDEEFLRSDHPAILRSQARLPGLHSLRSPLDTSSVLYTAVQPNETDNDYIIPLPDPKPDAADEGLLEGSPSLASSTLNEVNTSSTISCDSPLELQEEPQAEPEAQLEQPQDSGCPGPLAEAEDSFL
How it was run: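 Rat A10 cells, plated overnight, were treated with compound for 3 hours, then stimulated with PDGF-BB (working stock 100 ng/mL in 10% FBS medium). After lysis, PDGFRβ P-Y751 was detected by HTRF.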

Sequence of His6-TEV-PDGFRβ (557-1016) (P09619 557-1016): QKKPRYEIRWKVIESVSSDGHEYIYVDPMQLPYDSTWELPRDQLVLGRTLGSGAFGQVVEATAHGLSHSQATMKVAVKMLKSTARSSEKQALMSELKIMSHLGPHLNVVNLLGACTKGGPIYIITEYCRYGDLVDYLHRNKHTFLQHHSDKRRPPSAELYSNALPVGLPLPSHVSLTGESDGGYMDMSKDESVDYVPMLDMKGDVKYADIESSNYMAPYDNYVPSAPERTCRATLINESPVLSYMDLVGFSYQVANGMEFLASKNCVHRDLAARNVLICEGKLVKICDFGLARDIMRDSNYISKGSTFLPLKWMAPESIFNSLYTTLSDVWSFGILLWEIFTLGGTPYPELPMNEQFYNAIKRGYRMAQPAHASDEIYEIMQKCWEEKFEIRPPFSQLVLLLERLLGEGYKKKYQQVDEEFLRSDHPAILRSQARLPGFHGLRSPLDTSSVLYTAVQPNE

Cc1ncc(NC(=O)C[C@H]2CCN(C(C)C)C2)cc1NC(=O)c1cnn2cc(-c3cnn(C)c3)sc12 [Example 465, (R)—N-(5-(2-(1-isopropylpyrrolidin-3-yl)acetamido)-2-methylpyridin-3-yl)-2-(1-methyl-1H-pyrazol-4-yl)pyrazolo[5,1-b]thiazole-7-carboxamide]
IC50 [1]: 3 nM | IC50 [2]: 73.9 nM | IC50 (PDGFRβ): 1860 nM

COCCn1cc(-c2cn3ncc(C(=O)Nc4cc(NC(=O)C[C@@H]5CCN(C(C)C)C5)cnc4C)c3s2)cn1 [Example 466, (S)—N-(5-(2-(1-isopropylpyrrolidin-3-yl)acetamido)-2-methylpyridin-3-yl)-2-(1-(2-methoxyethyl)-1H-pyrazol-4-yl)pyrazolo[5,1-b]thiazole-7-carboxamide]
IC50 [1]: 9 nM | IC50 [2]: 261 nM | IC50 (PDGFRβ): 350 nM

COCCn1cc(-c2cn3ncc(C(=O)Nc4cc(NC(=O)CN5CCC5C(C)C)cnc4C)c3s2)cn1 (stereo not drawn) [Example 467, N-(5-(2-(2-isopropylazetidin-1-yl)acetamido)-2-methylpyridin-3-yl)-2-(1-(2-methoxyethyl)-1H-pyrazol-4-yl)pyrazolo[5,1-b]thiazole-7-carboxamide]
IC50 [1]: 0.4 nM | IC50 [2]: 3 nM | IC50 (PDGFRβ): 4.4 nM

Cc1ncc(NC(=O)CC2CN(C)C2)cc1NC(=O)c1cnn2cc(-c3cnn4c3CCC4)sc12 [Example 468, 2-(5,6-dihydro-4H-pyrrolo[1,2-b]pyrazol-3-yl)-N-(2-methyl-5-(2-(1-methylazetidin-3-yl)acetamido)pyridin-3-yl)pyrazolo[5,1-b]thiazole-7-carboxamide]
IC50 [1]: 2.1 nM | IC50 [2]: 149 nM | IC50 (PDGFRβ): 2000 nM

Cc1ncc(C(=O)NCC2CCCN2C)cc1NC(=O)c1cnn2cc(-c3cnn4c3CCC4)sc12 (stereo not drawn) [Example 469, 2-(5,6-dihydro-4H-pyrrolo[1,2-b]pyrazol-3-yl)-N-(2-methyl-5-(((1-methylpyrrolidin-2-yl)methyl)carbamoyl)pyridin-3-yl)pyrazolo[5,1-b]thiazole-7-carboxamide]
IC50 [1]: 0.3 nM | IC50 [2]: 5.5 nM | IC50 (PDGFRβ): 40.5 nM

Cc1ncc(C(=O)NCC2CCCN2C)cc1NC(=O)c1cnn2cc(-c3cnn4c3OCCC4)sc12 (stereo not drawn) [Example 470, 2-(6,7-dihydro-5H-pyrazolo[5,1-b][1,3]oxazin-3-yl)-N-(2-methyl-5-(((1-methylpyrrolidin-2-yl)methyl)carbamoyl)pyridin-3-yl)pyrazolo[5,1-b]thiazole-7-carboxamide]
IC50 [1]: 0.5 nM | IC50 [2]: 6.8 nM | IC50 (PDGFRβ): 109 nM

Cc1ncc(NC(=O)CNC2CCC2)cc1NC(=O)c1cnn2cc(-c3cnn4c3CCC4)sc12 [Example 471, N-(5-(2-(cyclobutylamino)acetamido)-2-methylpyridin-3-yl)-2-(5,6-dihydro-4H-pyrrolo[1,2-b]pyrazol-3-yl)pyrazolo[5,1-b]thiazole-7-carboxamide]
IC50 [1]: 0.1 nM | IC50 [2]: 1 nM | IC50 (PDGFRβ): 3.4 nM

Cc1ncc(C(=O)NCCN2CCCC23CCC3)cc1NC(=O)c1cnn2cc(-c3cnn4c3COCC4)sc12 [Example 472, N-(5-((2-(5-azaspiro[3.4]octan-5-yl)ethyl)carbamoyl)-2-methylpyridin-3-yl)-2-(6,7-dihydro-4H-pyrazolo[5,1-c][1,4]oxazin-3-yl)pyrazolo[5,1-b]thiazole-7-carboxamide]
IC50 [1]: 0.4 nM | IC50 [2]: 2.8 nM | IC50 (PDGFRβ): 5.4 nM

Cc1ncc(NC(=O)CN2CCC[C@@H]2C)cc1NC(=O)c1cnn2cc(-c3cnn4c3COCC4)sc12 [Example 473, (S)-2-(6,7-dihydro-4H-pyrazolo[5,1-c][1,4]oxazin-3-yl)-N-(2-methyl-5-(2-(2-methylpyrrolidin-1-yl)acetamido)pyridin-3-yl)pyrazolo[5,1-b]thiazole-7-carboxamide]
IC50 [1]: 0.4 nM | IC50 [2]: 4.8 nM | IC50 (PDGFRβ): 5.3 nM

Cc1ncc(NC(=O)CN2CCC3(CC3)C2)cc1NC(=O)c1cnn2cc(-c3cnn4c3COCC4)sc12 [Example 474, N-(5-(2-(5-azaspiro[2.4]heptan-5-yl)acetamido)-2-methylpyridin-3-yl)-2-(6,7-dihydro-4H-pyrazolo[5,1-c][1,4]oxazin-3-yl)pyrazolo[5,1-b]thiazole-7-carboxamide]
IC50 [1]: 0.2 nM | IC50 [2]: 1.7 nM | IC50 (PDGFRβ): 3.9 nM

Cc1ncc(NC(=O)CN2CCC23CCC3)cc1NC(=O)c1cnn2cc(-c3cnn4c3COCC4)sc12 [Example 475, N-(5-(2-(1-azaspiro[3.3]heptan-1-yl)acetamido)-2-methylpyridin-3-yl)-2-(6,7-dihydro-4H-pyrazolo[5,1-c][1,4]oxazin-3-yl)pyrazolo[5,1-b]thiazole-7-carboxamide]
IC50 [1]: 0.2 nM | IC50 [2]: 1.4 nM | IC50 (PDGFRβ): 2.3 nM

Cc1ncc(NC(=O)CN2CC(C)(C)C2)cc1NC(=O)c1cnn2cc(-c3cnn4c3COCC4)sc12 [Example 476, 2-(6,7-dihydro-4H-pyrazolo[5,1-c][1,4]oxazin-3-yl)-N-(5-(2-(3,3-dimethylazetidin-1-yl)acetamido)-2-methylpyridin-3-yl)pyrazolo[5,1-b]thiazole-7-carboxamide]
IC50 [1]: 0.2 nM | IC50 [2]: 1.7 nM | IC50 (PDGFRβ): 4.9 nM

Cc1ncc(C(=O)NCCN2CC3CCC2CC3)cc1NC(=O)c1cnn2cc(-c3cnn4c3OCCC4)sc12 [Example 477, N-(5-((2-(2-azabicyclo[2.2.2]octan-2-yl)ethyl)carbamoyl)-2-methylpyridin-3-yl)-2-(6,7-dihydro-5H-pyrazolo[5,1-b][1,3]oxazin-3-yl)pyrazolo[5,1-b]thiazole-7-carboxamide]
IC50 [1]: 0.3 nM | IC50 [2]: 2.3 nM | IC50 (PDGFRβ): 45.5 nM

Cc1ncc(C(=O)NCCN2CCCC23CCC3)cc1NC(=O)c1cnn2cc(-c3cnn4c3OCCC4)sc12 [Example 478, N-(5-((2-(5-azaspiro[3.4]octan-5-yl)ethyl)carbamoyl)-2-methylpyridin-3-yl)-2-(6,7-dihydro-5H-pyrazolo[5,1-b][1,3]oxazin-3-yl)pyrazolo[5,1-b]thiazole-7-carboxamide]
IC50 [1]: 0.3 nM | IC50 [2]: 3 nM | IC50 (PDGFRβ): 4.6 nM

Cc1ncc(C(=O)NCCN2CC(C)(C)C2)cc1NC(=O)c1cnn2cc(-c3cnn4c3OCCC4)sc12 [Example 479, 2-(6,7-dihydro-5H-pyrazolo[5,1-b][1,3]oxazin-3-yl)-N-(5-((2-(3,3-dimethylazetidin-1-yl)ethyl)carbamoyl)-2-methylpyridin-3-yl)pyrazolo[5,1-b]thiazole-7-carboxamide]
IC50 [1]: 0.3 nM | IC50 [2]: 2 nM | IC50 (PDGFRβ): 97.1 nM

Cc1ncc(C(=O)NCCN2CC3CCC2CC3)cc1NC(=O)c1cnn2cc(-c3cnn4c3CCC4)sc12 [Example 480, N-(5-((2-(2-azabicyclo[2.2.2]octan-2-yl)ethyl)carbamoyl)-2-methylpyridin-3-yl)-2-(5,6-dihydro-4H-pyrrolo[1,2-b]pyrazol-3-yl)pyrazolo[5,1-b]thiazole-7-carboxamide]
IC50 [1]: 0.3 nM | IC50 [2]: 2.5 nM | IC50 (PDGFRβ): 19.5 nM

Cc1ncc(C(=O)NCCN2CCCC2(C)C)cc1NC(=O)c1cnn2cc(-c3cnn4c3CCC4)sc12 [Example 481, 2-(5,6-dihydro-4H-pyrrolo[1,2-b]pyrazol-3-yl)-N-(5-((2-(2,2-dimethylpyrrolidin-1-yl)ethyl)carbamoyl)-2-methylpyridin-3-yl)pyrazolo[5,1-b]thiazole-7-carboxamide]
IC50 [1]: 0.3 nM | IC50 [2]: 2 nM | IC50 (PDGFRβ): 3.9 nM

Cc1ncc(C(=O)NCCN2CC(C)(C)C2)cc1NC(=O)c1cnn2cc(-c3cnn4c3CCC4)sc12 [Example 482, 2-(5,6-dihydro-4H-pyrrolo[1,2-b]pyrazol-3-yl)-N-(5-((2-(3,3-dimethylazetidin-1-yl)ethyl)carbamoyl)-2-methylpyridin-3-yl)pyrazolo[5,1-b]thiazole-7-carboxamide]
IC50 [1]: 0.2 nM | IC50 [2]: 1.6 nM | IC50 (PDGFRβ): 28.6 nM
